Measured values published in patent EP1619246A1, “RNA dependent RNA polymerases from coronavirus and their use in molecular biology and drug screening” (Université de la Méditerranée, Aix-Marseille II, priority 2004, dated 2006).

Molecular target: SARS CoV nsp8 RNA dependent RNA polymerase, N-terminally His-tagged (SARS-CoV replicase residues 3920-4117), SEQ ID NO. 1 (Severe acute respiratory syndrome coronavirus, UniProt P0C6X7)
Test: biochemical
Type: biochemical

For `Nc1nc2c(ncn2[C@@H]2O[C@H](COP(=O)(O)OP(=O)(O)OP(=O)(O)O)C[C@H]2O)c(=O)[nH]1` [3'-deoxy GTP, 3'-deoxy-GTP], the IC50 was roughly 80 nM and the “Nsp8 activity inhibition in presence of 50 µM 3'-deoxy GTP” value was “can be inhibited”.
`CO[C@H]1/C=C/O[C@@]2(C)Oc3c(C)c(O)c4c(O)c(c(/C=N/N5CCN(C)CC5)c(O)c4c3C2=O)NC(=O)/C(C)=C\C=C\[C@H](C)[C@H](O)[C@@H](C)[C@@H](O)[C@@H](C)[C@H](OC(C)=O)[C@@H]1C` [Rifampicine] was tested, and the “nsp8 polymerase activity in presence of Rifampicine (inhibitor of the bacterial polymerase)” value was “activity detected”.
